# Laboratory results taken from patent US10561115B2 (priority 2016, dated 2020).
# Several values for one entry are separate records, joined by “and”; a condition that tells them apart may be missing. Equal entries are not always repeated.
# What was measured:
# grazers = details: general statement, no test described; cited from earlier work
# [1] = tested on: wild type Chlorella sorokiniana; assay: Growth (OD at 750 nm) of wild type Chlorella sorokiniana in the presence of propiconazole; assay type: cell-based; details: 10 μM propiconazole; culture typically crashes after a few days
# Description: (§1) Chlorella sorokiniana cells (Wild type) and propiconazole resistant mutants of Chlorella species (PcZ-1) were inoculated at 0.1-0.15 OD@750 nm (each set in triplicates). To verify the effect of methanol (propiconazole was dissolved in methanol), one set was treated with 0.1% methanol. One set of flasks in triplicate of Wild type and PcZ-1 mutants were inoculated with and without 10 μM propiconazole. After inoculation flasks were kept in 12 h light/12 hour dark cycles of white light in an incubator shaker at 100 rpm. The temperature was 28° C., 70% humidity and 2% ambient CO2. 3 mL sample was removed each day, to determine the Optical density (OD) of the culture at 750 nm. The results obtained are as illustrated in FIG. 1.
# FIG. 1 illustrates a graph of the growth comparison between wild type Chlorella sorokiniana and propiconazole resistant mutants of Chlorella species Chlorella sorokiniana mutant PcZ-1, in the presence of propiconazole, wherein A represents wild type Chlorella sorokiniana grown in the absence of propiconazole, B represents wild type Chlorella sorokiniana grown in the presence of 0.1% methanol, C represents wild type Chlorella sorokiniana grown in the presence of 10 μM propiconazole, D represents PcZ-1 grown in the absence of propiconazole, E represents PcZ-1 grown in the presence of 0.1% methanol, and F represents PcZ-1 grown in the presence of 10 μM propiconazole. […]
# [2] = tested on: propiconazole resistant mutants of Chlorella species (PcZ-1); assay: Growth (OD at 750 nm) of PcZ-1 mutant with and without 10 μM propiconazole, compared with wild type; assay type: cell-based, Chlorella sorokiniana; details: for Average % increase PcZ-1 + 10 uM PcZ / % increase PcZ-1 + 10 μM PcZ: PcZ-1 with 10 μM propiconazole vs wild type without propiconazole; for % increase PcZ-1 + 10 μM PcZ: individual replicates, listed as PcZ
# Description: as §1
# FIG. 1 illustrates a graph of the growth comparison between wild type Chlorella sorokiniana and propiconazole resistant mutants of Chlorella species Chlorella sorokiniana mutant PcZ-1, in the presence of propiconazole, wherein A represents wild type Chlorella sorokiniana grown in the absence of propiconazole, B represents wild type Chlorella sorokiniana grown in the presence of 0.1% methanol, C represents wild type Chlorella sorokiniana grown in the presence of 10 μM propiconazole, D represents PcZ-1 grown in the absence of propiconazole, E represents PcZ-1 grown in the presence of 0.1% methanol, and F represents PcZ-1 grown in the presence of 10 μM propiconazole. […] The propiconazole resistant mutants of Chlorella species (PcZ-1) was not affected by the presence of propiconazole, and continued to grow.
structure (smiles),measurement,setting,value
"CCCC1COC(Cn2cncn2)(c2ccc(Cl)cc2Cl)O1 (stereo not drawn) [propiconazole, Propiconazole]",Concentration at which propiconazole is a potent grazicide,grazers,≥ 0.5 ppm
same,Growth of the wild type Chlorella sorokiniana in the presence of propiconazole,[1],inhibited
same,Growth of PcZ-1 in the presence of propiconazole,"[2]; 10 μM propiconazole, continued to grow",not affected
same,Average % increase PcZ-1 + 10 uM PcZ,[2]; day 4,60.2%
same,% increase PcZ-1 + 10 μM PcZ,[2]; day 4,45.5% and 66.7% and 68.6%
same,Average % increase PcZ-1 + 10 uM PcZ,[2]; day 6,27.1%
same,% increase PcZ-1 + 10 μM PcZ,[2]; day 6,17.3% and 38.7% and 25.4%
same,Average % increase PcZ-1 + 10 uM PcZ,[2]; day 7,21.1%
same,% increase PcZ-1 + 10 μM PcZ,[2]; day 7,10.6% and 29.4% and 23.2%
